Measured values as given in patent US4246282A, “ω-Dialkylalkanoic acid derivatives used to induce antianoxic activity” (Labaz, priority 1979, dated 1981).

Key:
[1] = β-Mercaptopropionic acid seizure (protection against the tonic seizure); type: in vivo, mice; details: Mus musculus, 0.25 h
Protocol: β-Mercaptopropionic acid is an inhibitor of glutamate decarboxylase (G.A.D.), an enzyme which catalyses the transformation of glutamate into γ-aminobutyric acid (GABA). As a consequent of this, a decrease in the GABA lever occurs together with generalized tonico-clonic seizures 3 to 4 minutes after administration.
In the present test, β-mercaptopropionic acid was administered intraperitoneally to batches of 10 male mice, at a dose of 70 mg/kg, 30 minutes after oral administration of a dose of the compound to be studied. The percentage of animals protected against the tonic seizure was registered 15 minutes after administration of the β-mercaptopropionicacid.

[2] = Pentylenetetrazol seizure; type: in vivo, mice; details: Mus musculus, 0.25 h
[3] = rota rod test (neurotoxicity, coordination of movements on a turning rod)
Protocol: This test enables the animal's ability to coordinate its movements on a turning rod to be evaluated. […] (a) 15 min. after administration of 500 mg/kg by oral route:

[4] = Anoxia in confined space (period of survival); type: in vivo, mice
Protocol: Batches of 15 male mice were treated with a dose of a compound to be studied. After that, each animal was placed in a hermetically sealed box of 200 cm^3. The animal was considered to be dead when it had stopped breathing.
The increase in the period of survival was then noted in % in comparison with the controls. […]

[5] = 15 min. after administration of 500 mg/kg by oral route
[6] = 30 min. after administration of 500 mg/kg by oral route
[7] = 15 min. after administration of 100 mg/kg by intraperitoneal route
[8] = 30 min. after administration of 100 mg/kg by intraperitoneal route

## CCCC(CCC)CC(=O)[O-].[Na+]
[1]; po
  ED50: 168 mg/kg
[2]; po
  ED50: 95 mg/kg
[3]; [5]
  % of failures: 30%
[3]; [6]
  % of failures: 30%

## CCCC(CCC)CC(N)=O [3-n-propyl-hexanamide, 3-n-Propyl-hexanamide]
[3]; [5]
  % of failures: 30%
[3]; [6]
  % of failures: 10%

## CCCC(CCC)CCC(N)=O [4-n-propyl-heptanamide, 4-n-Propyl-heptanamide]
[3]; [7]
  % of failures: 0%

## CCCC(CCC)CCCC(N)=O [5-n-propyl-octanamide, 5-n-Propyl-octanamide]
[3]; [5]
  % of failures: 0%
[3]; [8]
  % of failures: 50%

## CCCC(CCC)CCC(=O)O [ONa, n = 1]
[3]; [7]
  % of failures: 30%

## CCCC(CCC)CCCC(=O)O [ONa, n = 2]
[1]; male mice, oral, 30 min before β-mercaptopropionic acid 70 mg/kg i.p., registered 15 minutes after, read-out: ED50
  ED50: 273 mg/kg
[3]; [5]
  % of failures: 20%
[3]; [8]
  % of failures: 100%

## CCCC(CCC)C(N)=O [di-n-propylacetamide]
[4]; 50 mg/kg intraperitoneal
  increase in survival time: 12%
[2]; mice, oral route, registered 15 minutes after pentylenetetrazol, read-out: ED50
  ED50: 46 mg/kg
[3]; 15 minutes after administration of 170 mg/kg by oral route
  % of failures: 50%

## CCCC(CCC)C(=O)[O-].[Na+] [sodium di-n-propylacetate]
[1]; po, an other comparative test, read-out: ED50
  ED50: 175 mg/kg
[4]; 200 mg/kg intraperitoneal
  increase in survival time: 32%
